These results are taken from ChEMBL document CHEMBL4028893, “Discovery and Optimization of Potent, Cell-Active Pyrazole-Based Inhibitors of Lactate Dehydrogenase (LDH)” (J Med Chem, 2017).

Data set [1] deals with Liver. Description: Drug metabolism in mouse liver microsomes assessed as glucuronidated metabolite formation measured over 90 mins in presence of NADPH/UDPGA. The format is ADME, microsome.
Data set [2] deals with MIA PaCa-2. Description: Cytoxicity against human MIAPaCa2 cells assessed as cell growth inhibition at 20 uM after 48 hrs by CellTiter-Glo assay. Type of data set: functional, cell-based.
The test system of data set [3] is Mus musculus. Description: Cmax in CD1 mouse plasma at 50 mg/kg, po measured over 24 hrs post dose by LC/MS/MS analysis. The format is ADME, organism-based. Further details: dose 50 mg/kg, route oral. Particulars: in vivo.
The nature of data set [4]: Drug level in human MIAPaCa2 cells by LC-MS/MS analysis. Type of data set: ADME, cell-based. Particulars: mia paca-2.
Data set [5] deals with Mus musculus. Description: AUClast in CD1 mouse plasma at 2 mg/kg, iv measured over 24 hrs post dose by LC/MS/MS analysis. Type of data set: ADME, organism-based. Further details: dose 2 mg/kg, time 0 - last, route intravenous. Particulars: in vivo.
Data set [6] has as its system Mus musculus. The experiment in a line: Oral bioavailability in CD1 mouse plasma at 50 mg/kg measured over 24 hrs post dose by LC/MS/MS analysis. As to conditions: in vivo. The format is ADME, organism-based.
Data set [7] has as its system Mus musculus. The experiment in a line: Clearance in CD1 mouse plasma at 2 mg/kg, iv measured over 24 hrs post dose by LC/MS/MS analysis. Particulars: in vivo. The format is ADME, organism-based.
The target in data set [8] is Isocitrate dehydrogenase [NADP] cytoplasmic (Homo sapiens, UniProt O75874). The experiment in a line: Inhibition of wild type IDH1 (unknown origin) using isocitrate as substrate preincubated for 30 mins followed by substrate addition in presence of NADP+ measured up to 5 mins by resorufin-based fluorescence assay.
Data set [9] is described as follows: Drug level in human A673 cells by LC-MS/MS analysis. Type of data set: ADME, cell-based.
Data set [10] deals with Mus musculus. Description: AUClast in CD1 mouse plasma at 50 mg/kg, po measured over 24 hrs post dose by LC/MS/MS analysis. Type of data set: ADME, organism-based. Further details: dose 50 mg/kg, time 0 - last, route oral. Particulars: in vivo.
Data set [11] deals with Liver. Description: Drug metabolism in human liver microsomes assessed as glucuronidated metabolite formation measured over 90 mins in presence of NADPH/UDPGA. The format is ADME, microsome.
The test system of data set [12] is Mus musculus. Description: Volume of distribution at steady state in CD1 mouse plasma at 2 mg/kg, iv measured over 24 hrs post dose by LC/MS/MS analysis. The format is ADME, organism-based. As to conditions: in vivo.
The target of data set [13] is T1, L-lactate dehydrogenase A chain (Homo sapiens, UniProt P00338).
The target of data set [14] is T2, L-lactate dehydrogenase (Homo sapiens, UniProt V9HWB9). Description: Inhibition of LDH in human MIAPaCa2 cells assessed as reduction in lactate production preincubated for 2 hrs measured after 30 mins by high throughput fluorescence assay. The format is cell-based.
The target in data set [15] is T1, L-lactate dehydrogenase A chain. This is another data set of the same source.
Description: (§1) Inhibition of human liver LDHA using sodium pyruvate as substrate after 5 mins in presence of NAPDH and in absence of EDTA by diaphorase/resazurin based fluorescence assay
Data set [16] shares this target. This is another data set of the same source.
Description: Inhibition of human liver LDHA using sodium pyruvate as substrate after 5 mins in presence of NAPDH and EDTA by diaphorase/resazurin based fluorescence assay
The target is the same in data set [17]. This is another data set of the same source.
Description: as §1
Data set [18] addresses T2, L-lactate dehydrogenase. The experiment in a line: Inhibition of LDH in human A673 cells assessed as reduction in lactate production preincubated for 2 hrs measured after 30 mins by high throughput fluorescence assay. The format is cell-based.
Data set [19] in a line: Inhibition of pig heart MDH using malic acid as substrate preincubated for 10 mins followed by substrate addition measured up to 5 mins by resorufin-based fluorescence assay. Also on record: species or system Sus scrofa.
Data set [20] deals with MIA PaCa-2. The experiment in a line: Cytotoxicity against human MIAPaCa2 cells assessed as long term cell growth inhibition measured every 4 hrs for 120 hrs by incucyte zoom live cell analysis. The format is functional, cell-based.
Data set [21] deals with A673. The experiment in a line: Cytotoxicity against human A673 cells assessed as long term cell growth inhibition measured every 4 hrs for 120 hrs by incucyte zoom live cell analysis. The format is functional, cell-based.
The target of data set [22] is L-lactate dehydrogenase B chain (Homo sapiens, UniProt P07195). The experiment in a line: Inhibition of human erythrocytes LDHB using sodium pyruvate as substrate after 5 mins in presence of […] by diaphorase/resazurin based fluorescence assay.
In data set [23] the test system is A673. Description: Cytotoxicity against human A673 cells after 48 hrs by CellTiter-Glo assay. Particulars: A673, 48 h.
The test system of data set [24] is MIA PaCa-2. The experiment in a line: Cytotoxicity against human MIAPaCa2 cells after 48 hrs by CellTiter-Glo assay. As to conditions: MIA PaCa-2, 48 h.

Molecules are shown by their SMILES. Active and inactive are the calls of the source. No cut-off for these calls is given here.

Chain of Isocitrate dehydrogenase [NADP] cytoplasmic (O75874 whole entry): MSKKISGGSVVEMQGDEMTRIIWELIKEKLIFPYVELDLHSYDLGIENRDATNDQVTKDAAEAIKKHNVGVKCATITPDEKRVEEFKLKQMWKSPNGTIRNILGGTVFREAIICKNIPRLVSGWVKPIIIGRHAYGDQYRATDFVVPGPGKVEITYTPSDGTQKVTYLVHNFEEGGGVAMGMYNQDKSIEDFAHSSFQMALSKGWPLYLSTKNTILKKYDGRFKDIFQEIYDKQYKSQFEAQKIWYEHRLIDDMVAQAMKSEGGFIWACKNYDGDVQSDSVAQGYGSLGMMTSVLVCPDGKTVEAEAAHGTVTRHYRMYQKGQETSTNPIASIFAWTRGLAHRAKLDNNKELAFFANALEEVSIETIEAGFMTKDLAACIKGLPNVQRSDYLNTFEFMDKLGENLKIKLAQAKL
Chain of L-lactate dehydrogenase B chain (P07195 whole entry): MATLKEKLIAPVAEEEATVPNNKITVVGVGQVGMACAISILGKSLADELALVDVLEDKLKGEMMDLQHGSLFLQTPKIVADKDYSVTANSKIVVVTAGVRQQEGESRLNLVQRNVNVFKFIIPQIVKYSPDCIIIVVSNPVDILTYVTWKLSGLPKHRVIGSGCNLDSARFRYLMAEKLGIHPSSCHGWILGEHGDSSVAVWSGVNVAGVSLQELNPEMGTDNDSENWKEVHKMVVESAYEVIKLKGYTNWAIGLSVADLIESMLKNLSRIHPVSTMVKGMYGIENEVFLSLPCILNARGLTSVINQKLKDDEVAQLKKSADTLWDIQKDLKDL

Turning to `NS(=O)(=O)c1ccc(Cc2c(-c3cccc(-c4ccccc4)c3)nn(-c3nc(C(=O)O)cs3)c2CC2CC2)cc1`, the Drug metabolism result in the data set with Liver [1] and in the data set with Liver [11] was “Metabolite_Notdetected” each time. Further, the “growth inhibition (GI)” value in the data set on MIA PaCa-2 [2] was “Active”. This compound came in with a Cmax in the data set on Mus musculus [3] of 1780 nM. The Drug uptake entry in data set [4] and in data set [9] was “Active” in each case. Further, the values for the AUClast in the data set on Mus musculus [5] and in the data set on Mus musculus [10] were 0.19 µM·h and 2.5 µM·h, respectively. In the data set on Mus musculus [6], this compound gave an F of 50%. In the data set on Mus musculus [7], this compound showed a CL of 294 L/h/kg. In addition, in data set [8], the IC50 is 29.8 µM. This compound also came in with a Vdss in the data set on Mus musculus [12] of 27 L/kg.
`O=C(O)c1csc(-n2nc(-c3ccccc3)cc2C(F)(F)F)n1` had an EC50 in data set [13] above 100 µM. Further, the inhibition result on L-lactate dehydrogenase [14] and on L-lactate dehydrogenase [18] was “inactive” throughout. The Efficacy in data set [15] fell in the range of 40 to 60%. Also, the IC50 worked out at 28.8 µM in data set [16] and 22.2 µM in data set [17].
Consider `Nc1c(Cc2ccc(S(N)(=O)=O)cc2)c(-c2cccc(-c3ccccc3)c2)nn1-c1nc(C(=O)O)cs1`, for which the Drug uptake result in [4] and in data set [9] was “Active” each time. Besides, the IC50 in data set [19] was 26.8 µM; in [8] it was above 57 µM.
Regarding `Cc1nc2ccc(NC(=O)CCNC(=O)CCCc3ccc(CC(C(=O)O)C(=O)O)cc3)cc2s1`, the Drug uptake result in [4] and in [9] was “Active” in each case. A half-maximal response in [13] (EC50) required 1.6 µM. Also, the IC50 in [19] was above 57 µM; in [8], above 57 µM; in data set [16], 1.34 µM; with MIA PaCa-2 [20], above 20 µM; with A673 [21] it was above 20 µM; in data set [22], 9.2 µM.
As to `NS(=O)(=O)c1ccc(Cc2c(-c3cccc(Br)c3)nn(-c3nc(C(=O)O)cs3)c2O)cc1`, the Drug uptake result in data set [4] and in data set [9] was “Active” in each case. The IC50 in data set [8] was above 57 µM; in [22] it was 1.51 µM.
On to `NS(=O)(=O)c1ccc(Cc2c(-c3ccccc3)nn(-c3nc(C(=O)O)cs3)c2-c2cccnc2)cc1`, for which the Drug uptake result in data set [4] and in [9] was “Active” throughout. Further, the IC50 in [19] and in data set [8] was above 57 µM each time.
Consider `NS(=O)(=O)c1ccc(Cc2c(-c3cccc(-c4ccccc4)c3)nn(-c3nc(C(=O)O)cs3)c2C(F)(F)F)cc1`, for which the Drug uptake result in data set [4] and in [9] was “Active” in each case. Moreover, the IC50 in [19] stood at 48.6 µM; in data set [8], 33.5 µM.
`NS(=O)(=O)c1ccc(Cc2c(-c3ccccc3)nn(-c3nc(C(=O)O)cs3)c2-c2ccncc2)cc1`: the Drug uptake entry in [4] and in data set [9] was “Active” throughout. Also, the IC50 in data set [19] is above 57 µM; in [8], above 57 µM; in data set [16] it was 6.23 µM; in data set [17] it was 6.23 µM; in data set [22], 2.82 µM.
With `NS(=O)(=O)c1ccc(Cc2cn(-c3nc(C(=O)O)cs3)nc2-c2cccc(-c3ccccc3)c2)cc1`, the Drug uptake result in [4] and in [9] was “Active” in each case. Further, the IC50 in data set [19] is 48.6 µM; in [8] it was 47.4 µM.
Turning to `NS(=O)(=O)c1ccc(Nc2cn(-c3nc(C(=O)O)cs3)nc2-c2ccccc2)cc1`, the Drug uptake result in data set [4] and in data set [9] was “Active” throughout. Also, the IC50 in data set [19] and in data set [8] was above 57 µM each time.
As to `NS(=O)(=O)c1ccc(Cc2c(-c3cccc(-c4ccccc4)c3)nn(-c3nc(C(=O)O)cs3)c2O)cc1`, the Drug uptake result in [4] and in [9] was “Active” throughout. Further, the IC50 is above 57 µM in data set [19] and 47.4 µM in data set [8].
Regarding `NS(=O)(=O)c1ccc(Cc2cn(-c3nc(C(=O)O)cs3)nc2-c2ccc(F)c(F)c2)cc1`, the Drug uptake result in [4] and in [9] was “Active” each time. In addition, the IC50 with A673 [23] was above 57 µM; in data set [19], above 57 µM; in data set [8], above 57 µM; in data set [16], 0.095 µM; in data set [17] it was 0.095 µM; in data set [22], 0.129 µM.
For the compound `NS(=O)(=O)c1ccc(Cc2c(-c3ccccc3)nn(-c3nc(C(=O)O)cs3)c2C2CC2)cc1`, the Drug uptake entry in [4] and in data set [9] was “Active” in each case. Moreover, the IC50 in [19] is 37.8 µM; in data set [8], above 57 µM.
In the case of `NS(=O)(=O)c1ccc(Cc2c(-c3cccc(-c4ccccc4)c3)nn(-c3nc(C(=O)O)cs3)c2C2CC2)cc1`, the Drug metabolism result with Liver [1] and with Liver [11] was “Metabolite_Notdetected” each time. Also, the Cmax with Mus musculus [3] was 1200 nM. For the same compound, the Drug uptake result in data set [4] and in [9] was “Active” throughout. The AUClast is 0.26 µM·h in the data set with Mus musculus [5] and 3.2 µM·h with Mus musculus [10]. In the data set on Mus musculus [6], this compound registered an F of 49%. Moreover, the IC50 in data set [19] is 42.4 µM; in data set [8], 33.5 µM. For the same compound, the CL in the data set with Mus musculus [7] came to 227 L/h/kg. Also, the Vdss in the data set with Mus musculus [12] worked out at 5.6 L/kg.
Consider `NS(=O)(=O)c1ccc(Nc2cn(-c3nc(C(=O)O)cs3)nc2-c2cccc(-c3ccccc3)c2)cc1`, for which the Drug uptake result in data set [4] and in [9] was “Active” in each case. Also, the values for the half-maximal inhibitory concentration (IC50) in data set [19] and in data set [8] were 37.8 µM and above 57 µM, respectively.
Turning to `NS(=O)(=O)c1ccc(Cc2c(-c3ccc(F)c(F)c3)nn(-c3nc(C(=O)O)cs3)c2O)cc1`, the IC50 (in the data set on MIA PaCa-2 [24]; in the data set with A673 [23]; in data set [19]; in data set [8]) was above 57 µM in each case. Moreover, the Drug uptake entry in [4] and in [9] was “Active” in each case.
Consider `NS(=O)(=O)c1ccc(Cc2cn(-c3nc(C(=O)O)cs3)nc2-c2ccccc2)cc1`, for which the Drug uptake entry in data set [4] and in data set [9] was “Active” throughout. Also, the IC50 in [19] is above 57 µM; in [8], above 57 µM; in data set [16], 0.176 µM; in data set [17], 0.177 µM.
For the compound `COc1ncc(-c2ccc3c(Nc4cc(Oc5cc(F)cc(F)c5)cc(C(=O)O)c4)c(S(=O)(=O)NC4CC4)cnc3c2)c(OC)n1`, the IC50 was 28.4 µM with MIA PaCa-2 [24]; above 57 µM in the data set with A673 [23]; 37.8 µM in [19]; above 57 µM in [8]; 12.6 µM on L-lactate dehydrogenase [14]; 1.37 µM with MIA PaCa-2 [20]. For the same compound, the results for the IC50 in the data set on A673 [21] and at L-lactate dehydrogenase [18] were 0.84 µM and 14.5 µM, respectively. Also, the Drug uptake entry in data set [4] and in data set [9] was “Active” each time.
